Assays:
[1] = Pharmacokinetic study in rats after oral administration of a single dose, HPLC-MS of plasma; type: in vivo; conditions: rat, single dose 48.5 μmol/kg
Description: The bioavailability of some compounds synthesized (Examples 1a, 2, 2a, 3, 3a, 10, 15a, 16a and 24) was studied in rats after oral administration of a single dose (48.5 μmol/kg) and compared with the reference (R)- or (RS)-α-LA.
Each treatment was carried out on groups of 6 male rats (Sprague-Dawley SD rat) per compound. At regular times, blood withdrawals were carried out for the measurement by HPLC-MS of the concentration of plasmatic α-LA (FIGS. 5, 7, 9) and of the residual compound administered (FIGS. 6, 8).

HepG2 cells [2] = assay: Variation in NADH levels (total NADH/NAD ratio), spectrophotometric kit; type: cell-based, human; conditions: 72 hours
From the text: (§1) Although it is known that under hyperglycemic conditions α-LA induces AMPK activation in hepatic cells, the molecular mechanisms responsible for this biochemical process are not yet known. As envisaged in the description, the inventors of the present invention have advanced the hypothesis that AMPK activation by α-LA is the result of changes in the amount of NADH and NADHP present in cells, due to the interference of α-LA and/or its analogous derivatives in the oxidation-reduction processes. To verify this hypothesis, use was made of commercial kits (by Valter Occhiena) able to analyze the variations in the cellular amounts of NAD(P)H relative to total NAD(P), in the presence of increasing concentrations of the compounds under analysis (total NAD=NADH+NAD^+; total NADP=NADPH+NADP^+).

HepG2 cells [3] = assay: Variation in NADPH levels (total NADPH/NADP ratio), spectrophotometric kit; type: cell-based, human; conditions: HepG2 cells, 5, 10, 100 and 500 μM, 72 hours
From the text: as §1

[4] = in man, cited from earlier work
diabetic rats = conditions: diabetes type II models, high doses of α-LA (30 mg/kg in rats); cited from earlier work
[5] = tested on: human hepatocarcinoma cells (HepG2 cells); assay: Evaluation of cell viability (ATPlite luminometric assay) and cell proliferation; type: cell-based; conditions: 1 mM
Description: Dose-dependent concentration studies of the synthesized compounds were carried out and compared with the effects of alpha-lipoic acid, defined as reference standard, on human hepatocarcinoma cells (HepG2 cells) with the aim of evaluating their effects on cell viability.
Analysis by optical microscope enabled any morphological changes and accumulation of lipid vesicles to be determined as well as to evaluate cell proliferation or arrest.
A luminometric assay (ATPlite, Perkin Elmer), based on the production of light caused by a reaction with the intracellular ATP of viable cells, enabled the compounds to be classified on the basis of their viability index. In this respect, the signal detected by the luminometer is proportional to the number of viable cells. […]

Compound	released alpha-lipoic acid and compound itself in plasma, any withdrawal time [1]	NADH levels relative to control at 5 μM (FIG. 10) (HepG2 cells [2]; 5 μM)	effect on NADPH levels (FIG. 11) (HepG2 cells [3])	bioavailability after oral administration ([4]; oral)	plasma half life (t1/2) [4] [min]	glycemia in diabetic rats (diabetic rats)	confluence reached by HepG2 cells (arrest of cell proliferation) [5]	amount of NADH at high concentrations (FIG. 10) (HepG2 cells [2]; 100 and 500 μm)
O=C(CCCCC1CCSS1)NCCCN1CCOCC1 (racemic) [Example 3a, 5-[1,2]dithiolan-3-yl-pentanoic acid(3-morpholin-4-yl-propyl)-amide]	neither released alpha-lipoic acid nor the compound itself was detected	lower NADH levels than the control	influenced NADPH levels, in a dose dependent manner	–	–	–	–	–
O=C(O)CCCC[C@@H]1CCSS1 (racemic) [α-LA, 1,2-dithiolane-3-pentanoic acid]	–	–	–	less than 30%	28	reduces glycemia	–	–
O=C(O)CCCC[C@@H]1CCSS1 [(R)-α-LA, (R)-alpha-lipoic acid, reference compound]	–	–	influenced NADPH levels, in a dose dependent manner	–	–	–	60-70%	decrease in NADH levels

From patent US20110212954A1, “ALPHA-LIPOIC ACID DERIVATIVES AND THEIR USE IN DRUG PREPARATION” (priority 2008, published 2011)
